Test results published in ChEMBL document CHEMBL1201862, “PubChem BioAssay data set” (2004).
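These data come from cells grown in 96-well plates and exposed to compound for 48 hours at five concentrations. GI50: concentration for 50% inhibition of growth.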 Activity calls are given as the source filed them. Rule as the data show it: active = GI50 up to about 1.1 µM and inactive = higher.

Columns and labels:
Test in all cases: NCI-60 cell line screen, 48 h
SK-MEL-5 = tested on: SK-MEL-5
SF-295 = tested on: SF-295
NCI-H226 = tested on: NCI-H226
M14 = tested on: M14
MOLT-4 = tested on: MOLT-4
SF-268 = tested on: SF-268
786-0 = tested on: 786-0
OVCAR-3 = tested on: OVCAR-3
LOX IMVI = tested on: LOX IMVI
U-251 = tested on: U-251
NCI-H522 = tested on: NCI-H522
Malme-3M = tested on: Malme-3M
NCI-H23 = tested on: NCI-H23
K562 = tested on: K562
SW-620 = tested on: SW-620
IGROV-1 = tested on: IGROV-1

Measured: GI50

COc1c(O)c2c3c(cc(C)cc3c1C(C)C)OC2
inactive: SK-MEL-5 > 100 µM | SF-295 > 100 µM | NCI-H226 > 100 µM | M14 > 100 µM | MOLT-4 > 100 µM | SF-268 > 100 µM | 786-0 > 100 µM | OVCAR-3 > 100 µM | LOX IMVI > 100 µM | U-251 > 100 µM | NCI-H522 > 100 µM | Malme-3M > 100 µM | NCI-H23 > 100 µM | K562 > 100 µM | SW-620 > 100 µM | IGROV-1 > 100 µM

CCN(CC)C(=O)C/C(C)=N/NC(=O)c1ccncc1
inactive: SK-MEL-5 > 100 µM | SF-295 > 100 µM | NCI-H226 > 100 µM | M14 > 100 µM | MOLT-4 > 100 µM | SF-268 > 100 µM | 786-0 > 100 µM | OVCAR-3 > 100 µM | LOX IMVI > 100 µM | U-251 > 100 µM | NCI-H522 > 100 µM | Malme-3M > 100 µM | NCI-H23 > 100 µM | K562 > 100 µM | SW-620 > 100 µM | IGROV-1 > 100 µM

CCc1cc(C)cc2[n+]1CC=C2C.[O-][Cl+3]([O-])([O-])[O-]
inactive: SK-MEL-5 > 100 µM | SF-295 > 100 µM | NCI-H226 > 100 µM | M14 > 100 µM | SF-268 > 100 µM | 786-0 > 100 µM | OVCAR-3 93.1 µM | LOX IMVI > 100 µM | U-251 > 100 µM | NCI-H522 49.7 µM | Malme-3M 35 µM | NCI-H23 66.1 µM | SW-620 > 100 µM

O=C1CC(c2ccccc2)NCN1 (centres undefined)
inactive: SK-MEL-5 > 100 µM | SF-295 > 100 µM | NCI-H226 > 100 µM | M14 > 100 µM | MOLT-4 > 100 µM | SF-268 > 100 µM | 786-0 > 100 µM | OVCAR-3 > 100 µM | LOX IMVI > 100 µM | U-251 > 100 µM | NCI-H522 > 100 µM | Malme-3M > 100 µM | NCI-H23 > 100 µM | K562 > 100 µM | SW-620 > 100 µM | IGROV-1 > 100 µM

Cc1ccc(NC(=O)C2C(=O)N(c3ccc(C)c(C)c3)C(=O)C2N=N)cc1C (centres undefined)
inactive: SK-MEL-5 67 µM | SF-295 65 µM | NCI-H226 > 100 µM | M14 > 100 µM | MOLT-4 > 100 µM | SF-268 > 100 µM | 786-0 > 100 µM | OVCAR-3 > 100 µM | U-251 95.9 µM | NCI-H522 38.1 µM | Malme-3M > 100 µM | NCI-H23 74.5 µM | SW-620 > 100 µM | IGROV-1 97.1 µM

COc1ccc2c3c([nH]c2c1[N+](=O)[O-])C(C)N(C)CC3 (centres undefined)
inactive: SK-MEL-5 49.5 µM | SF-295 62.8 µM | NCI-H226 > 100 µM | M14 > 100 µM | MOLT-4 51.6 µM | SF-268 > 10 µM | 786-0 > 100 µM | OVCAR-3 > 100 µM | U-251 > 100 µM | NCI-H522 > 100 µM | Malme-3M > 100 µM | NCI-H23 > 100 µM | K562 18.1 µM | SW-620 29.6 µM | IGROV-1 > 100 µM

S=C(Nc1ccccc1)Nc1ccccc1SC(/C=C/NNC1=NN=C(c2ccccc2)C(c2ccccc2)N1)c1ccccc1 (centres undefined)
inactive: SK-MEL-5 44.6 µM | SF-295 69.3 µM | M14 > 100 µM | MOLT-4 13.4 µM | SF-268 > 100 µM | 786-0 81.5 µM | OVCAR-3 > 100 µM | LOX IMVI > 100 µM | U-251 > 100 µM | NCI-H522 8.85 µM | Malme-3M > 100 µM | K562 64.9 µM | SW-620 > 100 µM | IGROV-1 > 100 µM

Cc1nc(C(=O)O)c2ccccc2n1
inactive: SK-MEL-5 > 100 µM | SF-295 > 100 µM | MOLT-4 > 100 µM | SF-268 > 100 µM | 786-0 > 100 µM | OVCAR-3 > 100 µM | U-251 > 100 µM | Malme-3M > 100 µM | NCI-H23 > 100 µM | K562 > 100 µM | SW-620 > 100 µM | IGROV-1 > 100 µM

CCOC1=C2C(=O)OC(=O)C2C2CCCCC2=C1 (centres undefined)
inactive: SK-MEL-5 > 100 µM | SF-295 > 100 µM | M14 > 100 µM | MOLT-4 > 100 µM | SF-268 > 100 µM | 786-0 > 100 µM | OVCAR-3 > 100 µM | LOX IMVI > 100 µM | U-251 > 100 µM | NCI-H522 > 100 µM | Malme-3M > 100 µM | NCI-H23 > 100 µM | K562 > 100 µM | SW-620 > 100 µM | IGROV-1 > 100 µM

CC(=O)Oc1c(C)c(-c2ccccc2)c(C)c(-c2ccccc2)c1C(=S)c1ccccc1
inactive: SK-MEL-5 > 100 µM | SF-295 > 100 µM | NCI-H226 > 100 µM | M14 > 100 µM | MOLT-4 93.3 µM | SF-268 > 100 µM | 786-0 > 100 µM | OVCAR-3 > 100 µM | LOX IMVI > 100 µM | U-251 > 100 µM | NCI-H522 > 100 µM | Malme-3M > 100 µM | NCI-H23 > 100 µM | K562 > 100 µM | IGROV-1 > 100 µM

O=C(O)c1c2c(c(C(=O)O)c3ccccc13)-c1ccccc1-2
inactive: SF-295 33.6 µM | NCI-H226 34 µM | M14 47.5 µM | MOLT-4 39.5 µM | SF-268 31.9 µM | 786-0 36.8 µM | OVCAR-3 27.5 µM | LOX IMVI 38.4 µM | U-251 35.6 µM | NCI-H522 35.2 µM | Malme-3M 31 µM | NCI-H23 39.8 µM | K562 33.6 µM | SW-620 36.8 µM | IGROV-1 > 10 µM

O=C(CO)C1CC2C=CC1C2 (centres undefined)
inactive: SK-MEL-5 > 100 µM | SF-295 > 100 µM | M14 > 100 µM | MOLT-4 > 100 µM | SF-268 > 100 µM | 786-0 > 100 µM | OVCAR-3 > 100 µM | LOX IMVI > 100 µM | U-251 > 100 µM | NCI-H522 > 100 µM | Malme-3M > 100 µM | NCI-H23 > 100 µM | K562 > 100 µM | SW-620 > 100 µM | IGROV-1 > 100 µM

Cc1cccc(C)c1NC(=O)CCCC(=O)C(C#N)c1ccccc1 (centres undefined)
inactive: SK-MEL-5 > 100 µM | SF-295 > 10 µM | NCI-H226 > 100 µM | M14 > 100 µM | MOLT-4 > 100 µM | SF-268 > 10 µM | 786-0 > 10 µM | OVCAR-3 > 10 µM | U-251 > 10 µM | NCI-H522 > 100 µM | NCI-H23 > 100 µM | K562 > 100 µM | SW-620 > 100 µM | IGROV-1 > 100 µM

O=C(CSc1nnc[nH]1)C[P+](c1ccccc1)(c1ccccc1)c1ccccc1
inactive: SK-MEL-5 > 100 µM | SF-295 > 100 µM | M14 > 100 µM | MOLT-4 40.2 µM | SF-268 > 100 µM | 786-0 > 100 µM | OVCAR-3 74.8 µM | LOX IMVI > 100 µM | NCI-H522 4.25 µM | Malme-3M > 100 µM | NCI-H23 > 100 µM | K562 43.4 µM | SW-620 > 100 µM | IGROV-1 > 100 µM
